Values of other authors as cited in article PMC8329336, “The Role of Co-Signaling Molecules in Psoriasis and Their Implications for Targeted Treatment” (Frontiers in Pharmacology, 2021).
Like-named read-outs stand apart in the source and are kept apart here.

Assays:
[1] = tested on: p40 subunits of IL-23 and IL-12; parameters: method as in Lebwohl et al., 2015; settings: through binding to the p40 subunits of IL-23 and IL-12; ref Lebwohl et al., 2015
LFA-1 [2] = tested on: LFA-1; parameters: method as in Guttman-Yassky et al., 2008; Grönholm et al., 2016; settings: ref Guttman-Yassky et al., 2008; Grönholm et al., 2016
LFA-1 [3] = settings: led to withdrawal from the US market in 2009; ref Kuschei et al., 2011; Hsu and Tsai, 2020
human T cells = tested on: human T cells; parameters: method as in Kuschei et al., 2011; settings: ref Kuschei et al., 2011
ICAM-1 = tested on: ICAM-1; parameters: method as in Wen et al., 2014; Xiong et al., 2015; settings: ref Wen et al., 2014; Xiong et al., 2015
CD40 = settings: for Efficacy (PASI scores of psoriasis) / Adverse event: patients with psoriasis, ref Anil Kumar et al. (2018); for Efficacy (PASI scores of psoriasis): Phase I; for Adverse event: limited number of patients
[4] = Phase I, ref Papp et al. (2017)

Molecule: Anti-p40: approved drug for psoriasis treatment, binds to the p40 subunits of IL-23 and IL-12
- IL-23A-induced IL-17A production [1]: inhibit

Molecule: KHK4083: fully human monoclonal antibody against OX40
- Adverse event (OX40; [4]): Mild or moderate chills, infusion site reactions
- PASI scores (OX40; [4]): PASI scores↓
- efficacy (OX40; highest dose (10 mg/ kg), patients with mild to moderate plaque psoriasis, ref Papp et al., 2017): good efficacy
- safety and tolerability (OX40; phase I study, ref Papp et al., 2017): safe and well tolerated

Molecule: Efalizumab: humanized monoclonal antibody against LFA-1
- cell-surface molecules involved in T cell activation (CD3, TCR, CD4, CD8, CD28, integrin VLA-4) (LFA-1 [2]): downregulate
- Adverse event (LFA-1 [3]): Progressive multifocal leukoencephalopathy
- co-stimulatory molecules ICOS, OX40, CD27, and 4-1BB (human T cells; human T cells): downregulating
- proliferation and cytokine production of human T cells (human T cells): potently inhibiting

Molecule: CC(C)=CCC[C@]1(C)C=Cc2c(O)c3c(c(CC=C(C)C)c2O1)O[C@]12C(=C[C@@H]4C[C@H]1C(C)(C)O[C@@]2(C/C=C(/C)C(=O)O)C4=O)C3=O [gambogic acid]
- effect on psoriasis (ICAM-1): improve
- expression of ICAM-1 (ICAM-1): inhibiting

Molecule: CC1(C)[C@@H](O[C@H]2O[C@H](C(=O)O)[C@@H](O)[C@H](O)[C@H]2O[C@@H]2O[C@H](C(=O)O)[C@@H](O)[C@H](O)[C@H]2O)CC[C@]2(C)[C@H]3C(=O)C=C4[C@@H]5C[C@@](C)(C(=O)O)CC[C@]5(C)CC[C@@]4(C)[C@]3(C)CC[C@@H]12 [glycyrrhizin]
- effect on psoriasis (ICAM-1): improve
- expression of ICAM-1 (ICAM-1): inhibiting

B1: Bleselumab: fully human IgG4 monoclonal antibody (mAb) that targets CD40 (antibody, chains of the INN, looked up, V domains shown)
VH: QLQLQESGPGLLKPSETLSLTCTVSGGSISSPGYYGGWIRQPPGKGLEWIGSIYKSGSTYHNPSLKSRVTISVDTSKNQFSLKLSSVTAADTAVYYCTRPVVRYFGWFDPWGQGTLVTVSS
VL: AIQLTQSPSSLSASVGDRVTITCRASQGISSALAWYQQKPGKAPKLLIYDASNLESGVPSRFSGSGSGTDFTLTISSLQPEDFATYYCQQFNSYPTFGQGTKVEIK
- clinically malignant events (CD40; as compared to CD40L-specific mAbs, ref Anil Kumar et al., 2018): no clinically malignant events
- Efficacy (PASI scores of psoriasis) (CD40): Ineffective
- Efficacy (PASI scores of psoriasis) (CD40; listed as bleselumab): did not improve
- Adverse event (CD40): Transient elevations of liver transaminase enzymes
- Adverse event (CD40; listed as bleselumab): transient elevations in liver transaminase enzymes
